The structures appear in SMILES notation.

The first test concerns Plasmodium falciparum 3D7 (CQ-sensitive). Put plainly: In vitro antimalarial assay (malaria SYBR Green I-based fluorescence, MSF), 3D7. In kind it is cell-based. The following applies: 3D7, 72 h, read-out: 3D7 % inh @ 1 μM. How it is done:
Stock solutions of each test drug were prepared in DMSO at a concentration of 20 mM. The drug solutions were serially diluted with culture medium and distributed to asynchronous parasite cultures on 96-well plates in quadruplicate in a total volume of 100 μL to achieve 0.5% parasitemia with a 2% hematocrit in a total volume of 100 pt. […] After incubation, 100 μL of lysis buffer with 0.2 μL/mL SYBR Green I was added to each well.
Antimalarial potency of compounds was determined by this technique for both Plasmodium falciparum 3D7 (CQ-sensitive) and Dd2 (multi-drug resistant) strains.
Turning to `CC(C)COc1cccc(C2(c3cccc(-c4cccnc4)c3)NC(=N)N(C3CCOCC3)C2=O)c1` (centres unmarked) [Example 404, 2-imino-5-(3-isobutoxyphenyl)-5-(3-(pyridin-3-yl)phenyl)-3-(tetrahydro-2H-pyran-4-yl)imidazolidin-4-one], the inhibition of growth at 1 µM came to 7%.

The test is the same for the next values; noted with them: 3D7, Table 11, read-out: Pf 3D7 IC50.
For `COc1cccc(C2(c3cccc(-c4ccncc4)c3)NC(=N)N(C3CCCCC3)C2=O)c1` (centres unmarked) [Example 225, 3-cyclohexyl-2-imino-5-(3-methoxy-phenyl)-5-[3-(pyridin-4-yl)phenyl]imidazolidin-4-one], the IC50 was determined as 318 nM.
In the case of `Cc1cccc(C2(c3cccc(C)c3)NC(=N)N(C3CCCCC3)C2=O)c1` [Example 237, 3-cyclohexyl-2-imino-5,5-bis(3-methylphenyl)-imidazolidin-4-one], the 50% inhibitory concentration (IC50) was 533 nM.
Still for that read-out and setting: as for `N=C1NC(c2ccccc2)(c2cccc(Oc3ccccc3)c2)C(=O)N1C1CCCCC1` (centres unmarked) [Example 238, 3-cyclohexyl-2-imino-5-(3-phenoxyphenyl)-5-phenylimidazolidin-4-one], the figure is 424 nM.
As to `N=C1NC(c2cccc(Cl)c2)(c2cccc(Cl)c2)C(=O)N1C1CCCCC1` [Example 267, 5,5-bis(3-chlorophenyl)-3-cyclohexyl-2-iminoimidazolidin-4-one], the IC50 was 1060 nM.
On the same count and under the same terms, as for `N=C1NC(c2cccc(-c3cccnc3)c2)(c2cccc(-c3cccnc3)c2)C(=O)N1C1CCCCC1` [Example 269, 3-cyclohexyl-2-imino-5,5-bis[3-(pyridin-3-yl)phenyl]imidazolidin-4-one], the figure is 725 nM.

Staying with this test, now noted: 3D7, Table 13, read-out: 3D7 IC50.
In the case of `COc1ccc(C2(c3ccc(OC)cc3)NC(=N)N(Cc3cccc4ccccc34)C2=O)cc1` [Example 223, 2-imino-5,5-bis(4-methoxyphenyl)-3-(naphthalen-1-ylmethyl)-imidazolidin-4-one], the IC50 is 644 nM.
The same measure, in the same setting: with `COc1cccc(C2(c3cccc(-c4ccncc4)c3)NC(=N)N(C3CCCCC3)C2=O)c1` (centres unmarked) [Example 225, 3-cyclohexyl-2-imino-5-(3-methoxy-phenyl)-5-[3-(pyridin-4-yl)phenyl]imidazolidin-4-one] the figure was 318 nM; with `COc1cccc(C2(c3cccc(-c4ccccn4)c3)NC(=N)N(C3CCCCC3)C2=O)c1` (centres unmarked) [Example 227, 3-cyclohexyl-2-imino-5-(3-methoxyphenyl)-5-[3-(pyridin-2-yl)phenyl]-imidazolidin-4-one], 657 nM; with `COc1ccc(C2(c3ccc(OC)cc3)NC(=N)N(Cc3ccccn3)C2=O)cc1` [Example 229, 2-imino-5,5-bis(4-methoxyphenyl)-3-(pyridin-2-ylmethyl)-imidazolidin-4-one], 682 nM.
Still for that read-out and setting: as for `COc1cccc(C2(c3cccc(OCc4ccccc4)c3)NC(=N)N(C3CCCCC3)C2=O)c1` (centres unmarked) [Example 230], the figure is 828 nM; as for `COc1ccc(C2(c3ccc(OC)cc3)NC(=N)N(Cc3ccc(C)cc3)C2=O)cc1` [Example 231, 2-imino-5,5-bis(4-methoxyphenyl)-3-[(4-methylphenyl)-methyl]imidazolidin-4-one], 795 nM; as for `COc1ccc(C2(c3ccc(OC)cc3)NC(=N)N(Cc3ccc(Cl)cc3)C2=O)cc1` [Example 232, 3-[(4-chlorophenyl)-methyl]-2-imino-5,5-bis(4-methoxyphenyl)-imidazolidin-4-one], 1270 nM.
Same read-out and setting: with `COc1ccc(CN2C(=N)NC(c3ccc(OC)cc3)(c3ccc(OC)cc3)C2=O)cc1` [Example 233, 2-imino-5,5-bis(4-methoxyphenyl)-3-[(4-methoxyphenyl)-methyl]imidazolidin-4-one] the figure was 554 nM; with `COc1ccc(C2(c3ccc(OC)cc3)NC(=N)N(Cc3ccccc3Cl)C2=O)cc1` [Example 234, 3-[(2-chlorophenyl)-methyl]-2-imino-5,5-bis(4-methoxyphenyl)-imidazolidin-4-one], 894 nM.
For `COc1ccc(C2(c3ccc(OC)cc3)NC(=N)N(Cc3cccc(Cl)c3)C2=O)cc1` [Example 235, 3-[(3-chlorophenyl)-methyl]-2-imino-5,5-bis(4-methoxyphenyl)-imidazolidin-4-one], the IC50 was found to be 684 nM.
In the case of `COc1ccc(C2(c3ccc(OC)cc3)NC(=N)N(Cc3cccc(OC)c3)C2=O)cc1` [Example 236, 2-imino-5,5-bis(4-methoxyphenyl)-3-[(3-methoxyphenyl)-methyl]imidazolidin-4-one], the IC50 was determined as 708 nM.
Take `Cc1cccc(C2(c3cccc(C)c3)NC(=N)N(C3CCCCC3)C2=O)c1` [Example 237, 3-cyclohexyl-2-imino-5,5-bis(3-methylphenyl)-imidazolidin-4-one]: the IC50 is 533 nM.
Regarding `N=C1NC(c2ccccc2)(c2cccc(Oc3ccccc3)c2)C(=O)N1C1CCCCC1` (centres unmarked) [Example 238, 3-cyclohexyl-2-imino-5-(3-phenoxyphenyl)-5-phenylimidazolidin-4-one], the IC50 came to 424 nM.
Still for that read-out and setting: with `COc1ccc(C2(c3ccc(OC)cc3)NC(=N)N(Cc3cccc(C(F)(F)F)c3)C2=O)cc1` [Example 249, 2-imino-5,5-bis(4-methoxyphenyl)-3-{[3-(trifluoromethyl)-phenyl]methyl} imidazolidin-4-one] the figure was 1520 nM; with `COc1ccc(C2(c3ccc(OC)cc3)NC(=N)N(C3CCN(Cc4ccccc4)CC3)C2=O)cc1` [Example 250, 3-(1-benzylpiperidin-4-yl)-2-imino-5,5-bis(4-methoxyphenyl)-imidazolidin-4-one], 2740 nM.
On the same count and under the same terms, with `COc1ccc(C2(c3ccc(OC)cc3)NC(=N)N(Cc3cccc(C)c3)C2=O)cc1` [Example 253, 2-imino-5,5-bis(4-methoxyphenyl)-3-[(3-methylphenyl)-methyl]imidazolidin-4-one] the figure was 381 nM; with `N=C1NC(c2cccc(Cl)c2)(c2cccc(Cl)c2)C(=O)N1C1CCCCC1` [Example 267, 5,5-bis(3-chlorophenyl)-3-cyclohexyl-2-iminoimidazolidin-4-one], 1060 nM.
The same measure, in the same setting: as for `N=C1NC(c2cccc(-c3cccnc3)c2)(c2cccc(-c3cccnc3)c2)C(=O)N1C1CCCCC1` [Example 269, 3-cyclohexyl-2-imino-5,5-bis[3-(pyridin-3-yl)phenyl]imidazolidin-4-one], the figure is 725 nM; as for `COc1ccc(C2(c3ccc(OC)cc3)NC(=N)N(C3CCC(C)CC3)C2=O)cc1` (centres unmarked) [Example 270, 2-imino-5,5-bis(4-methoxyphenyl)-3-(4-methylcyclohexyl)imidazolidin-4-one], 724 nM.
As for `COc1ccc(C2(c3ccc(OC)cc3)NC(=N)N(Cc3cc(C)ccc3C)C2=O)cc1` [Example 272, 3-[(2,5-dimethylphenyl)-methyl]-2-imino-5,5-bis(4-methoxyphenyl) imidazolidin-4-one], the IC50 stood at 976 nM.
On the same count and under the same terms, with `CNC(=O)c1cccc(C2(c3ccccc3)NC(=N)N(C3CCCCC3)C2=O)c1` (centres unmarked) [Example 273, 3-(1-cyclohexyl-2-imino-5-oxo-4-phenylimidazolidin-4-yl)-N-methylbenzamide] the figure was 1380 nM; with `COc1ccc(C2(c3ccc(OC)cc3)NC(=N)N(Cc3ccccc3F)C2=O)cc1` [Example 306, 3-[(2-fluorophenyl)-methyl]-2-imino-5,5-bis(4-methoxyphenyl)-imidazolidin-4-one], 5230 nM.
For the molecule `COc1ccc(C2(c3ccc(OC)cc3)NC(=N)N(Cc3ccccc3Br)C2=O)cc1` [Example 307, 3-[(2-bromophenyl)-methyl]-2-imino-5,5-bis(4-methoxy-phenyl)imidazolidin-4-one], the IC50 was determined as 5560 nM.
The same measure, in the same setting: as for `CC(C)COc1cccc(C2(c3cccc(OCC(C)C)c3)NC(=N)N(C3CCOCC3)C2=O)c1` [Example 389, 2-imino-5,5-bis[3-(2-methylpropoxy)phenyl]-3-(oxan-4-yl)imidazolidin-4-one], the figure is greater than 5000 nM.
Same read-out and setting: with `CC(C)COc1ccc(C2(c3ccc(OCC(C)C)cc3)NC(=N)N(C3CCOCC3)C2=O)cc1` [Example 390, 2-imino-5,5-bis[4-(2-methylpropoxy)phenyl]-3-(oxan-4-yl)imidazolidin-4-one] the figure was 4080 nM; with `CC(C)COc1ccc(C2(c3cccc(-c4cccnc4)c3)NC(=N)N(C3CCOCC3)C2=O)cc1` (centres unmarked) [Example 412, 2-imino-5-(4-isobutoxyphenyl)-5-(3-(pyridin-3-yl)phenyl)-3-(tetrahydro-2H-pyran-4-yl)imidazolidin-4-one], 4210 nM; with `N#Cc1cccc(-c2cccc(C3(c4ccccc4)NC(=N)N(C4CCOCC4)C3=O)c2)c1` (centres unmarked) [Example 413, 3′-(2-imino-5-oxo-4-phenyl-1-(tetrahydro-2H-pyran-4-yl)imidazolidin-4-yl)-[1,1′-biphenyl]-3-carbonitrile], 1990 nM.
With `N#Cc1cccc(-c2cccc(C3(C4CC4)NC(=N)N(C4CCOCC4)C3=O)c2)c1` (centres unmarked) [Example 414, 3′-(4-cyclopropyl-2-imino-5-oxo-1-(tetrahydro-2H-pyran-4-yl)imidazolidin-4-yl)-[1,1′-biphenyl]-3-carbonitrile], the IC50 came out at 293 nM.
Still for that read-out and setting: with `N#Cc1cccc(-c2cccc(C3(C4CC4)NC(=N)N(C4CCCCC4)C3=O)c2)c1` (centres unmarked) [Example 486, 3′-(1-cyclohexyl-4-cyclopropyl-2-imino-5-oxoimidazolidin-4-yl)-[1,1′-biphenyl]-3-carbonitrile] the figure was 1460 nM.
Same read-out and setting: with `COc1ccc(C2(C3CC3)NC(=N)N(C3CCOCC3)C2=O)cc1-c1cccnc1` (centres unmarked) [Example 490, 5-cyclopropyl-2-imino-5-(4-methoxy-3-(pyridin-3-yl)phenyl)-3-(tetrahydro-2H-pyran-4-yl)imidazolidin-4-one] the figure was 515 nM; with `N#Cc1cccc(-c2cccc(C3(C4CCCCC4)NC(=N)N(C4CCOCC4)C3=O)c2)c1` (centres unmarked) [Example 492, 3′-(4-cyclohexyl-2-imino-5-oxo-1-(tetrahydro-2H-pyran-4-yl)imidazolidin-4-yl)-[1,1′-biphenyl]-3-carbonitrile], 1110 nM.
Same read-out and setting: with `COc1ccc(C2(C3CCCC3)NC(=N)N(C3CCCCC3)C2=O)cc1` (centres unmarked) [Example 493, 3-cyclohexyl-5-cyclopentyl-2-imino-5-(4-methoxyphenyl)imidazolidin-4-one] the figure was 640 nM; with `N=C1NC(c2ccc(OC(F)(F)F)cc2)(C2CC2)C(=O)N1C1CCOCC1` (centres unmarked) [Example 494, 5-cyclopropyl-2-imino-3-(tetrahydro-2H-pyran-4-yl)-5-(4-(trifluoromethoxy)phenyl)imidazolidin-4-one], 680 nM; with `N=C1NC(c2cccc(Cl)c2)(C2CC2)C(=O)N1C1CCOCC1` (centres unmarked) [Example 495, 5-(3-chlorophenyl)-5-cyclopropyl-2-imino-3-(tetrahydro-2H-pyran-4-yl)imidazolidin-4-one], 930 nM.
With `N=C1NC(c2ccc(Cl)cc2)(C2CC2)C(=O)N1C1CCOCC1` (centres unmarked) [Example 496, 5-(4-chlorophenyl)-5-cyclopropyl-2-imino-3-(tetrahydro-2H-pyran-4-yl)imidazolidin-4-one], the IC50 is 350 nM.

The IC50 is the concentration that inhibits the measured activity by half.

(Values after US9353089B2, “Compositions and methods for the treatment of malaria” (Saint Louis University, priority 2013, dated 2016).)
